Like-named read-outs stand apart in the source and are kept apart here.
Assays:
Type in all cases: cell-based
Renilla = Renilla signal in NR2F6 agonist screening, cmpd/DMSO; settings: Renilla, F4
NR2F6 = target: T1, NR2F6 (Homo sapiens, UniProt P10588); assay: NR2F6 agonist screening, Firefly signal cmpd/DMSO
T1 construct: expressed in transfected cells; also transient transfection
T1 sequence (P10588 1-404): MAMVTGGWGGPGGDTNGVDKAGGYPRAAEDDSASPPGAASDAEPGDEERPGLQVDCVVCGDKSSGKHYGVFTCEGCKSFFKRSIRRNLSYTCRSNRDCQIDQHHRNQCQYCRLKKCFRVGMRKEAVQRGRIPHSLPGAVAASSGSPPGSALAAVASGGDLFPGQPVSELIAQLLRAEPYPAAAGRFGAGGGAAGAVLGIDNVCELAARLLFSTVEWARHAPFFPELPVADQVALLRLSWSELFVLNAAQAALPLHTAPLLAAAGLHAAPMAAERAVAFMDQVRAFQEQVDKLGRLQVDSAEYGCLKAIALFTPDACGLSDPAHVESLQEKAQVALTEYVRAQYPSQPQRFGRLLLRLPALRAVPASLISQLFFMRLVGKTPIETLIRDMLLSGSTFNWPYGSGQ

NR2F6 LBD = target: T2, NR2F6 LBD (Homo sapiens, UniProt P10588); assay: NR2F6 LBD transient transfection; settings: LBD
T2 construct: expressed in transfected cells
T2 sequence (P10588 165-393 limits assumed): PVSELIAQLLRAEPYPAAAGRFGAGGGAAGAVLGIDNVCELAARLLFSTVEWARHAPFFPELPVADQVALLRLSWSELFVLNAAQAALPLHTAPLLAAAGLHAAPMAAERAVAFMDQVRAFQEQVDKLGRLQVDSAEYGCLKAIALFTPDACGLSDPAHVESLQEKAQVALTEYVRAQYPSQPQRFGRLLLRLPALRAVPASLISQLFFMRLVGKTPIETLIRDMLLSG
Summary of the method: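 LBD-transfected cells treated at 40, 10, 2 and 0.5 μM (4 replicates); cytotoxicity measured in parallel, normalized to DMSO (0%) and zero signal (100%). Higher concentrations excluded where signal loss reflected toxicity.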

HEK293 pGL4 = assay: Firefly_pGL signal, cmpd/DMSO (pGL4 control cells); settings: Homo sapiens
[1] = read-out: Renilla, F4, cmpd/DMSO (mean)
[2] = 1% FBS, read-out: Renilla, F4, 1% FBS, cmpd/DMSO (mean)
[3] = 10% FBS, read-out: Renilla, F4, 10% FBS, cmpd/DMSO (mean)
[4] = HEK293, 0.5 uM, pGL4, read-out: Firefly pGL4, cmpd/DMSO (mean)
[5] = HEK293, 2 uM, pGL4, read-out: Firefly pGL4, cmpd/DMSO (mean)
[6] = HEK293, 10 uM, pGL4, read-out: Firefly pGL4, cmpd/DMSO (mean)
[7] = HEK293, 40 uM, pGL4, read-out: Firefly pGL4, cmpd/DMSO (mean)
[8] = HEK293, pGL4, 1% FBS, 0.5 uM, read-out: Firefly, pGL4, 1% FBS, cmpd/DMSO (mean)
[9] = HEK293, pGL4, 1% FBS, 2 uM, read-out: Firefly, pGL4, 1% FBS, cmpd/DMSO (mean)
[10] = HEK293, pGL4, 1% FBS, 10 uM, read-out: Firefly, pGL4, 1% FBS, cmpd/DMSO (mean)
[11] = HEK293, pGL4, 1% FBS, 40 uM, read-out: Firefly, pGL4, 1% FBS, cmpd/DMSO (mean)
[12] = HEK293, pGL4, 10% FBS, 0.5 uM, read-out: Firefly, pGL4, 10% FBS, cmpd/DMSO (mean)
[13] = HEK293, pGL4, 10% FBS, 2 uM, read-out: Firefly, pGL4, 10% FBS, cmpd/DMSO (mean)
[14] = HEK293, pGL4, 10% FBS, 10 uM, read-out: Firefly, pGL4, 10% FBS, cmpd/DMSO (mean)
[15] = HEK293, pGL4, 10% FBS, 40 uM, read-out: Firefly, pGL4, 10% FBS, cmpd/DMSO (mean)

SMILES: C[C@@H]1C[C@H](C)CN([C@H]2CS(=O)(=O)C[C@@H]2S(=O)(=O)c2cccs2)C1 [Compound D109]
- fold induction at 0.5 µM (Renilla; [1]): 1.1
- fold induction at 2 µM (Renilla; [1]): 1.2
- fold induction at 10 µM (Renilla; [1]): 1.6
- fold induction at 40 µM (Renilla; [1]): 0.5
- fold induction at 0.5 µM (Renilla; [2]): 1
- fold induction at 2 µM (Renilla; [2]): 1.3
- fold induction at 10 µM (Renilla; [2]): 1.7
- fold induction at 40 µM (Renilla; [2]): 1.1
- fold induction at 0.5 µM (Renilla; [3]): 1
- fold induction at 2 µM (Renilla; [3]): 1.2
- fold induction at 10 µM (Renilla; [3]): 1.9
- fold induction at 40 µM (Renilla; [3]): 2.4
- Firefly F4, cmpd/DMSO (mean) (NR2F6; 0.5 uM): 1.3
- Firefly F4, cmpd/DMSO (mean) (NR2F6; 2 uM): 2.3
- Firefly F4, cmpd/DMSO (mean) (NR2F6; 10 uM): 4.2
- Firefly F4, cmpd/DMSO (mean) (NR2F6; 40 uM): 0.4
- F4, Firefly/Renilla for S/B(F4) > 3 (NR2F6; 1% FBS, 10 uM): 3.1
- Firefly, F4/pGL4 for S/B(F4) > 3 (NR2F6; 1% FBS, 10 uM): 2.6
- F4, Firefly/Renilla for S/B(F4) > 3 (NR2F6; 10% FBS, 10 uM): 3.3
- Firefly, F4/pGL4 for S/B(F4) > 3 (NR2F6; 10% FBS, 10 uM): 3.0
- F4, Firefly/Renilla for S/B(F4) > 3 (NR2F6; 10% FBS, 40 uM): 1.3
- Firefly, F4/pGL4 for S/B(F4) > 3 (NR2F6; 10% FBS, 40 uM): 2.8
- Firefly, F4, 1% FBS, cmpd/DMSO (mean) (NR2F6; 1% FBS, 0.5 uM): 1.5
- Firefly, F4, 1% FBS, cmpd/DMSO (mean) (NR2F6; 1% FBS, 2 uM): 1.6
- Firefly, F4, 1% FBS, cmpd/DMSO (mean) (NR2F6; 1% FBS, 10 uM): 5.5
- Firefly, F4, 1% FBS, cmpd/DMSO (mean) (NR2F6; 1% FBS, 40 uM): 0.2
- Firefly, F4, 10% FBS, cmpd/DMSO (mean) (NR2F6; 10% FBS, 0.5 uM): 1.3
- Firefly, F4, 10% FBS, cmpd/DMSO (mean) (NR2F6; 10% FBS, 2 uM): 1.4
- Firefly, F4, 10% FBS, cmpd/DMSO (mean) (NR2F6; 10% FBS, 10 uM): 6.5
- Firefly, F4, 10% FBS, cmpd/DMSO (mean) (NR2F6; 10% FBS, 40 uM): 3.1
- Activity, cmpd/DMSO (NR2F6; Table 31): 6.2
- Firefly LBD, cmpd/DMSO (mean) (NR2F6 LBD; 0.5 uM): 1.1
- Firefly LBD, cmpd/DMSO (mean) (NR2F6 LBD; 2 uM): 2.1
- Firefly LBD, cmpd/DMSO (mean) (NR2F6 LBD; 10 uM): 3.2
- Firefly LBD, cmpd/DMSO (mean) (NR2F6 LBD; 40 uM): 0.2
- fold induction at 0.5 µM (HEK293 pGL4; [4]): 1
- fold induction at 2 µM (HEK293 pGL4; [5]): 1.6
- fold induction at 10 µM (HEK293 pGL4; [6]): 3.6
- fold induction at 40 µM (HEK293 pGL4; [7]): 0.5
- fold induction at 0.5 µM (HEK293 pGL4; [8]): 1.2
- fold induction at 2 µM (HEK293 pGL4; [9]): 1.3
- fold induction at 10 µM (HEK293 pGL4; [10]): 2.1
- fold induction at 40 µM (HEK293 pGL4; [11]): 1.1
- fold induction at 0.5 µM (HEK293 pGL4; [12]): 1.4
- fold induction at 2 µM (HEK293 pGL4; [13]): 1.2
- fold induction at 10 µM (HEK293 pGL4; [14]): 2.2
- fold induction at 40 µM (HEK293 pGL4; [15]): 1.1

SMILES: CCC(C)N[C@H]1CS(=O)(=O)C[C@@H]1S(=O)(=O)c1ccc(Cl)cc1 (stereo partly drawn) [Compound D121]
- fold induction at 0.5 µM (Renilla; [1]): 1.2
- fold induction at 2 µM (Renilla; [1]): 1.1
- fold induction at 10 µM (Renilla; [1]): 1.5
- fold induction at 40 µM (Renilla; [1]): 1.7
- fold induction at 0.5 µM (Renilla; [2]): 1.1
- fold induction at 2 µM (Renilla; [2]): 1.4
- fold induction at 10 µM (Renilla; [2]): 1.7
- fold induction at 40 µM (Renilla; [2]): 1.3
- fold induction at 0.5 µM (Renilla; [3]): 1
- fold induction at 2 µM (Renilla; [3]): 1.1
- fold induction at 10 µM (Renilla; [3]): 1.4
- fold induction at 40 µM (Renilla; [3]): 2.6
- Firefly F4, cmpd/DMSO (mean) (NR2F6; 0.5 uM): 0.9
- Firefly F4, cmpd/DMSO (mean) (NR2F6; 2 uM): 1.9
- Firefly F4, cmpd/DMSO (mean) (NR2F6; 10 uM): 4.9
- Firefly F4, cmpd/DMSO (mean) (NR2F6; 40 uM): 1.9
- F4, Firefly/Renilla for S/B(F4) > 3 (NR2F6; 1% FBS, 10 uM): 2.3
- Firefly, F4/pGL4 for S/B(F4) > 3 (NR2F6; 1% FBS, 10 uM): 1.2
- F4, Firefly/Renilla for S/B(F4) > 3 (NR2F6; 10% FBS, 10 uM): 2.4
- Firefly, F4/pGL4 for S/B(F4) > 3 (NR2F6; 10% FBS, 10 uM): 1.4
- F4, Firefly/Renilla for S/B(F4) > 3 (NR2F6; 10% FBS, 40 uM): 1.3
- Firefly, F4/pGL4 for S/B(F4) > 3 (NR2F6; 10% FBS, 40 uM): 2.9
- Firefly, F4, 1% FBS, cmpd/DMSO (mean) (NR2F6; 1% FBS, 0.5 uM): 1.5
- Firefly, F4, 1% FBS, cmpd/DMSO (mean) (NR2F6; 1% FBS, 2 uM): 1.2
- Firefly, F4, 1% FBS, cmpd/DMSO (mean) (NR2F6; 1% FBS, 10 uM): 3.9
- Firefly, F4, 1% FBS, cmpd/DMSO (mean) (NR2F6; 1% FBS, 40 uM): 0.1
- Firefly, F4, 10% FBS, cmpd/DMSO (mean) (NR2F6; 10% FBS, 0.5 uM): 1.2
- Firefly, F4, 10% FBS, cmpd/DMSO (mean) (NR2F6; 10% FBS, 2 uM): 1.4
- Firefly, F4, 10% FBS, cmpd/DMSO (mean) (NR2F6; 10% FBS, 10 uM): 3.3
- Firefly, F4, 10% FBS, cmpd/DMSO (mean) (NR2F6; 10% FBS, 40 uM): 3.4
- Firefly LBD, cmpd/DMSO (mean) (NR2F6 LBD; 0.5 uM): 1.0
- Firefly LBD, cmpd/DMSO (mean) (NR2F6 LBD; 2 uM): 1.5
- Firefly LBD, cmpd/DMSO (mean) (NR2F6 LBD; 10 uM): 3.6
- Firefly LBD, cmpd/DMSO (mean) (NR2F6 LBD; 40 uM): 0.7
- fold induction at 0.5 µM (HEK293 pGL4; [4]): 1.4
- fold induction at 2 µM (HEK293 pGL4; [5]): 1.6
- fold induction at 10 µM (HEK293 pGL4; [6]): 3.9
- fold induction at 40 µM (HEK293 pGL4; [7]): 0.7
- fold induction at 0.5 µM (HEK293 pGL4; [8]): 1.1
- fold induction at 2 µM (HEK293 pGL4; [9]): 1.1
- fold induction at 10 µM (HEK293 pGL4; [10]): 3.2
- fold induction at 40 µM (HEK293 pGL4; [11]): 0.8
- fold induction at 0.5 µM (HEK293 pGL4; [12]): 1.1
- fold induction at 2 µM (HEK293 pGL4; [13]): 1.4
- fold induction at 10 µM (HEK293 pGL4; [14]): 2.4
- fold induction at 40 µM (HEK293 pGL4; [15]): 1.2

From patent publication US11377442B2, “Small molecule agonists and antagonists of NR2F6 activity” (ZANDER THERAPEUTICS, INC., priority 2016, dated 2022)
